Active and inactive are the calls of the source. Cut-off read from the data, not from the text of the source, for most assays here: actives have a measured EC50 and inactives only a lower limit.
Legend:
Streptokinase A = target: T1, Streptokinase A (Streptococcus pyogenes serotype M1, UniProt P10520); experiment: S. pyogenes streptokinase expression inhibitors, potency, dose response, plasminogen activation absorbance, OD405 (AID 1914); format: functional, Streptococcus pyogenes M1 GAS;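 note: secreted streptokinase activity via plasminogen activation per viability signal from cell pellet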
T1 sequence (P10520 whole entry): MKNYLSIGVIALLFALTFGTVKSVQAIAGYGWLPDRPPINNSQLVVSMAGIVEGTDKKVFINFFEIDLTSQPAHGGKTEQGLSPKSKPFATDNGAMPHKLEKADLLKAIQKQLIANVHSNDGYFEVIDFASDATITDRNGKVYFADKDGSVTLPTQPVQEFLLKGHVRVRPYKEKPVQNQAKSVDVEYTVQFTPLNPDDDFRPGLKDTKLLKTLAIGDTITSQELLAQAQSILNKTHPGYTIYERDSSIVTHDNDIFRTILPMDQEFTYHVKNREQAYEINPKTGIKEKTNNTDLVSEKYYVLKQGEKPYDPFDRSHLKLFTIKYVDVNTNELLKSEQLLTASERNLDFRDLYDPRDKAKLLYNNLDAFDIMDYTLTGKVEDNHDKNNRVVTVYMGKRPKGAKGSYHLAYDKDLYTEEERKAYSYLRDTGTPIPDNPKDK

Streptococcus = experiment: Group A Streptococcus viability loss, dose response, counter-screen for streptokinase expression inhibitor project, luminescence, BacTiterGlo (AID 1915); format: functional, organism-based;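 note: potency for reduction of bacterial viability or growth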
[1] = test system: Streptococcus sp. 'group A'; experiment: growth inhibition of control SK(-) GAS strain, dose response, counter-screen for streptokinase expression inhibitor project, luminescence, kanamycin, BacTiterGlo, confirmation (AID 1900); format: functional, organism-based
Cytochrome P450 1A2 = target: T2, Cytochrome P450 1A2 (Homo sapiens, UniProt P05177);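 note: PubChem cytochrome P450 panel assay, CYP1A2 panel member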
T2 sequence (P05177 whole entry): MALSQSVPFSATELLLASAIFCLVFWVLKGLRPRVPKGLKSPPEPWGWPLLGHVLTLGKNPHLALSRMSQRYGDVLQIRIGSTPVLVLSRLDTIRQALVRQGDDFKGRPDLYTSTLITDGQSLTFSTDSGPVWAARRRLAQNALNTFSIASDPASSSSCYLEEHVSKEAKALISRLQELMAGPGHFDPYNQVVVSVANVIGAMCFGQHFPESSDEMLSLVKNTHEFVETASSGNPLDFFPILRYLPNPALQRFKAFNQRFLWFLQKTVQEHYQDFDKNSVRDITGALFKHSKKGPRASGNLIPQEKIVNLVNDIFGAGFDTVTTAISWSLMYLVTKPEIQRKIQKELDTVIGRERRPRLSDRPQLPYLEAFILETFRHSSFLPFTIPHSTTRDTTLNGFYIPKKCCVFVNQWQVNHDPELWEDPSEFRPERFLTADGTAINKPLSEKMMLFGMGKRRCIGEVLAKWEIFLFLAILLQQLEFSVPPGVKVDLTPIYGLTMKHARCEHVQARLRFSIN

[2] = cytotoxicity toward NIH3T3 fibroblasts, dose response, counter-screen, cell-based, ATP luminescence, mouse fibroblasts (AID 2010); format: functional;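 note: cells exposed to compound for about 90 hours before reading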
[3] = inhibitors of intracellular T. cruzi replication, confirmation, NIH3T3 host cells, beta-gal luminescence (AID 2044); format: functional, cell-based;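 note: intracellular parasites grown in NIH/3T3 mouse fibroblasts as host cells; luminescent beta-galactosidase reporter signal from transgenic T. cruzi replicating inside host cells; inhibitors lower the luminescence signal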
[4] = Luminescence Cell-Based Dose Retest to Confirm Inhibitors of Cancer Stem Cells. [Related pubchem assays (depositor defined):AID2717, AID2721]; format: functional; conditions: Homo sapiens
[5] = target: T3, RNA-binding protein pos-1 (Caenorhabditis elegans, UniProt G5EF15); experiment: inhibitors of POS-1/mex-3 RNA binding, dose response, biochemical, fluorescence polarization (AID 1964);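 note: purified POS-1 fused to maltose binding protein made in E. coli; potency of compounds blocking POS-1 binding to fluorescent RNA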
T3 sequence (G5EF15 whole entry): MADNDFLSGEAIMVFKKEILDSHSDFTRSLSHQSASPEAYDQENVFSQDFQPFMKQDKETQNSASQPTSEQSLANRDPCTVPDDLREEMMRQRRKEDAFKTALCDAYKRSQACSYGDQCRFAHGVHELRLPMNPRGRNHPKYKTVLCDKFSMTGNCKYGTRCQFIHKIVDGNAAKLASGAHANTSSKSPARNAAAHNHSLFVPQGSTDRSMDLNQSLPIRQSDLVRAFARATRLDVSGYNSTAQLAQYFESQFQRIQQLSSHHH

[6] = target: T4, Zinc finger protein mex-5 (Caenorhabditis elegans, UniProt Q9XUB2); experiment: MEX-5/TCR-2 RNA interaction inhibitors, dose response, biochemical, C. elegans, fluorescence polarization (AID 1960)
T4 sequence (Q9XUB2 whole entry): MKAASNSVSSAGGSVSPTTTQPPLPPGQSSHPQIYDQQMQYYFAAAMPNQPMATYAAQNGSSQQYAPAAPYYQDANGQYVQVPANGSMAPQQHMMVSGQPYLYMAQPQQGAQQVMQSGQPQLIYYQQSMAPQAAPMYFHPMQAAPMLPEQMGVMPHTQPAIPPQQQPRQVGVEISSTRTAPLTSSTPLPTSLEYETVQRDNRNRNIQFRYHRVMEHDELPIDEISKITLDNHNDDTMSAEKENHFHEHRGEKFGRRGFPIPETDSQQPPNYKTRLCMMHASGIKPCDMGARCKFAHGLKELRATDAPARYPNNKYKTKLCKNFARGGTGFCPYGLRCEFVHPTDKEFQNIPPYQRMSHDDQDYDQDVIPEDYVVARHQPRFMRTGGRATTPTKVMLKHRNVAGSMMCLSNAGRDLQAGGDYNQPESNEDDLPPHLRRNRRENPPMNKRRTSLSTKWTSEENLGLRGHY

Compound	EC50 (Streptokinase A)	EC50 (Streptococcus)	EC50 [1]	other results
FC(F)(F)c1cccc(NC(=S)Nc2ccc(Cl)c(Cl)c2)c1	> 150 µM (not active)	–	–	–
FC(F)(F)c1cccc(NC(S)=Nc2ccc(Cl)c(Cl)c2)c1	–	6.78 µM (active)	2.45 µM (active)	–
CCNc1ncc2nc(-c3cn(C)c4ccccc34)c(=O)n(C[C@H]3CCCO3)c2n1	–	–	–	AC50 (Cytochrome P450 1A2): 10 µM (inconclusive)
Cc1[nH]c2ccc(F)cc2c1CCN(Cc1cccnc1)C(S)=Nc1cccc(F)c1	–	–	–	EC50 [2]: > 30 µM (not active); EC50 [3]: 0.608 µM (active)
COc1ccc(NC2=NN=C(c3c(C)[nH]c4ccccc34)CS2)cc1	> 150 µM (not active)	13 µM (active)	3.9 µM (active)	AC50 [4]: 7.35 µM (active)
COc1cccc(N2C(=O)C3NN=C(C(=O)CN4C(=O)c5ccccc5C4=O)C3C2=O)c1 (stereo not drawn)	> 150 µM (not active)	> 150 µM (not active)	> 150 µM (not active)	–
COc1cc2c(cc1NC(=O)CN(C)Cc1cccc(OC)c1OC)oc1ccccc12	–	–	–	AC50 [4]: 2.86 µM (active)
O=C(Nc1cccc(Cl)c1N1CCCCC1)c1ccc2c(c1)OCCO2	> 150 µM (not active)	> 150 µM (not active)	9.41 µM (active)	AC50 [4]: 7.74 µM (active)
Cc1cccc(OCCCOc2cccc3cccnc23)c1C	> 150 µM (not active)	> 150 µM (not active)	16.9 µM (active)	–
CCCCCCCCCCCCCCCCCCc1ccc(C(=O)/C=C\C(=O)O)cc1	–	–	–	AC50 (Cytochrome P450 1A2): 31.6 µM (inconclusive)
Cc1ccc(CCNc2c([N+](=O)[O-])nn(-c3ccccc3)[n+]2[O-])cc1	–	–	–	EC50 [2]: > 30 µM (not active); EC50 [3]: 1.15 µM (active)
CC(NNc1ccccc1)=C1C(=O)NC(=O)NC1=O	–	–	–	AC50 [4]: 1.02 µM (active)
COC(=O)c1ccc(/C=C/c2c(-c3ccsc3)sc3ccccc23)cc1	–	–	–	AC50 [4]: 4.12 µM (active)
c1ccc(N2N=C(c3cccs3)CC2c2ccco2)cc1 (stereo not drawn)	40.1 µM (active)	> 150 µM (not active)	> 150 µM (not active)	–
CCN(CC)C1CCN(C(=O)c2cc(COc3ccc(F)cc3Cl)on2)C1 (stereo not drawn)	–	–	–	AC50 [4]: 1.21 µM (active)
CC(=O)OCC1=C(C(=O)O)N2C(=O)C(NC(=O)CCn3nc(C)c(Cl)c3C)C2SC1 (stereo not drawn)	–	1.31 µM (active)	2.13 µM (active)	–
Cn1c(Sc2ccccc2Cl)c(C=O)c2ccccc21	32.3 µM (inconclusive)	> 150 µM (not active)	27.1 µM (active)	–
O=C(/C=C/c1cccc(F)c1)NC1CCN(Cc2ccccc2)CC1	–	–	–	EC50 [2]: > 60 µM (not active); EC50 [3]: 0.102 µM (active)
CC1CCN(c2ccccc2NC(=O)c2cc3ccccc3o2)CC1	25.2 µM (active)	42.4 µM (active)	8.15 µM (active)	–
Cc1cccn2c(=O)c3cc(S(=O)(=O)c4ccccc4)c(=N)n(CC4CCCO4)c3nc12 (stereo not drawn)	–	–	–	EC50 [5]: 5.7 µM (inconclusive); EC50 [6]: > 300 µM (inconclusive)
O=C(O)c1ccc(NC(=S)NC(=O)c2cccc(COc3ccccc3)c2)cc1	–	38 µM (active)	18.6 µM (active)	–
CCCCn1c(=O)c(C(=O)NCCc2ccccc2)c(O)c2ccccc21	30.9 µM (active)	> 150 µM (not active)	26.4 µM (active)	–

Compound	EC50 (Streptokinase A)	EC50 (Streptococcus)	EC50 [1]	other results
O=C(NNC(=S)NC(=O)c1ccc(Br)cc1)c1cccc([N+](=O)[O-])c1	> 150 µM (not active)	9.6 µM (active)	2.41 µM (active)	–
CC(=O)c1ccc(N2CCN(S(=O)(=O)c3cc(-c4cc(C)no4)ccc3C(C)C)CC2)cc1	–	–	–	AC50 [4]: < 0.16 µM (active)
CCOC(=O)c1ccc(N2C(=O)/C(=C\NNC(=O)C3COc4ccccc4O3)c3ccccc3C2=O)cc1 (stereo not drawn)	–	4.31 µM (active)	1.02 µM (active)	–
CC(C)(c1ccc(OC[C@@H]2CO2)cc1)c1ccc(OC[C@H]2CO2)cc1	–	–	–	AC50 (Cytochrome P450 1A2): 31.6 µM (inconclusive)
Cc1cc(C)c(OCC(=O)Nc2ccccc2N2CCCCC2)c(C)c1	4.09 µM (active)	15.7 µM (active)	25.7 µM (active)	–
CCOc1ccc(CN2CCN(Cc3[nH]c4ccc(OC)cc4c3C)CC2CCO)cc1 (stereo not drawn)	–	–	–	EC50 [2]: > 60 µM (not active); EC50 [3]: 0.141 µM (active)
CCOC(=O)N1CCC(N2Cc3cccc(C(=O)Nc4ccc(F)cc4)c3C2=O)CC1	> 150 µM (not active)	> 150 µM (not active)	4.41 µM (active)	–
CN(C)CCCN(C(=O)c1ccco1)c1nc2c(F)cc(F)cc2s1	–	–	–	EC50 [2]: > 60 µM (not active); EC50 [3]: 0.101 µM (active)
COc1ccc(C2CC(C)(c3ccc(OC)cc3OC)Nc3ccccc3N2)c(OC)c1 (stereo not drawn)	–	–	–	EC50 [2]: > 60 µM (not active); EC50 [3]: 1.96 µM (active)
C1CCC(C(C[C@@H]2CCCCN2)C2CCCCC2)CC1	–	–	–	AC50 (Cytochrome P450 1A2): 6.31 µM (inconclusive)
CCOC(=O)N1CCC(n2c(SCC(=O)Nc3ccccc3OC)nc3ccccc3c2=O)CC1	–	–	–	EC50 [2]: > 60 µM (not active); EC50 [3]: 5.24 µM (active)
Cc1ccc(C(=O)C(c2ccccc2)N2Cc3ccccc3C2=N)cc1 (stereo not drawn)	4.15 µM (active)	> 150 µM (not active)	5.37 µM (active)	–
CC12CN3CC(C)(CN(C1)C31CCSCC1)C2=O	–	–	–	AC50 (Cytochrome P450 1A2): 12.6 µM (inconclusive)
O=C(N/N=C/c1c(O)ccc2ccccc12)Nc1ccccc1	–	8.39 µM (active)	8.29 µM (active)	EC50 [6]: > 300 µM (not active)
Cc1cccc(/C=N/NC(=O)Cc2ccc(Cl)cc2)c1O	–	7.4 µM (active)	4.52 µM (active)	–
CC[C@H]1OC(=O)C[C@@H](O)[C@H](C)[C@@H](O[C@@H]2O[C@H](C)C[C@H](N(C)C)[C@H]2O)[C@@H](CC=O)C[C@@H](C)C(=O)C=C[C@]2(C)O[C@H]2[C@@H]1C	–	< 0.06 µM (active)	< 0.06 µM (active)	–
C=CCc1cccc(/C=N/NC(=O)C(=O)Nc2ccc(C)cc2)c1O	> 150 µM (not active)	> 150 µM (not active)	> 150 µM (not active)	–
O=C(N/N=C/c1cn(-c2cccs2)nc1-c1ccccc1)c1ccc(O)cc1	–	–	–	AC50 [4]: 8.96 µM (active)
Cc1cc(SCC(=O)N/N=C/c2ccc(O)cc2O)nc2ccccc12	–	–	–	AC50 [4]: 4.06 µM (active); EC50 [2]: 18.8 µM (active); EC50 [3]: 1.71 µM (active)
Cc1ccccc1/C=N/Nc1nc2ccccc2[nH]1	> 150 µM (not active)	> 150 µM (not active)	146 µM (active)	–
CCOC(=O)c1c(/N=C/C2C(=O)NC(=S)NC2=O)sc(C)c1C	–	–	–	EC50 [5]: > 300 µM (not active); EC50 [6]: > 300 µM (inconclusive)
Cc1cccc(CN2CCN(C(c3ccccc3)c3ccc(Cl)cc3)CC2)c1 (stereo not drawn) [MECLIZINE DIHCL]	–	–	–	AC50 [4]: 3.57 µM (active)
